Tests used:
Mus musculus = organism: Mus musculus; assay: Percentage change in WBC at optimum dose on day 3; type: functional
P388 [1] = assay: Optimum dose (mg/kg) against P388 leukemic cells; type: functional, Mus musculus
P388 [2] = assay: Minimum effective dose against P388 leukemic cells; type: functional; settings: Mus musculus, read-out: MED
P388 [3] = assay: Maximum percent T/C (antitumor activity) against P388 leukemia cells for Mitomycin C; type: functional, Mus musculus
P388 [4] = assay: Maximum percent T/C (antitumor activity) against P388 leukemia cells; type: functional, Mus musculus
P388 [5] = assay: Ratio of optimal dose (OD) and minimum effective dose (MED) required for antitumor activity in mice bearing P-388 lymphocytic leukemia; type: functional, Mus musculus
[6] = Partition coefficient between 1-octanol and water containing phosphate buffer at pH 7.4; type: physicochemical; settings: 1-octanol/water containing phosphate buffer

SMILES	Change (Mus musculus) [%]	OD (P388 [1]) [mg/kg]	minimal effective dose (P388 [2]) [mg/kg]	T/C (P388 [3]) [%]	T/C (P388 [4]) [%]	Therapeutic ratio (P388 [5])	logD [6]
COC12[C@@H]3N[C@@H]3CN1C1=C(C(=O)C(Nc3nnc(C)s3)=C(C)C1=O)[C@@H]2COC(N)=O (stereo not given in full)	-32	25.6	0.8	267	222	32	–
COC12[C@@H]3N[C@@H]3CN1C1=C(C(=O)C(Nc3nc4c(Cl)cccc4s3)=C(C)C1=O)[C@@H]2COC(N)=O (stereo not given in full)	–	25.6	0.4	319	144	64	–
COC12[C@@H]3N[C@@H]3CN1C1=C(C(=O)C(Nc3cccc(C#N)c3)=C(C)C1=O)[C@@H]2COC(N)=O (stereo not given in full)	–	12.8	0.2	156	172	64	0.73
COC12[C@@H]3N[C@@H]3CN1C1=C(C(=O)C(Nc3ccc(F)cc3)=C(C)C1=O)[C@@H]2COC(N)=O (stereo not given in full)	–	12.8	–	278	167	32	1.44
COC12[C@@H]3N[C@@H]3CN1C1=C(C(=O)C(Nc3ccccc3)=C(C)C1=O)[C@@H]2COC(N)=O (stereo not given in full)	–	12.8	1.6	200	161	8	1.3
COC12[C@@H]3N[C@@H]3CN1C1=C(C(=O)C(Nc3nc4ccccc4s3)=C(C)C1=O)[C@@H]2COC(N)=O (stereo not given in full)	–	25.6	12.8	325	150	2	–
COc1cc(NC2=C(C)C(=O)C3=C(C2=O)[C@H](COC(N)=O)C2(OC)[C@@H]4N[C@@H]4CN32)cc(OC)c1 (stereo not given in full)	–	6.4	0.4	278	161	16	–
COC12[C@@H]3N[C@@H]3CN1C1=C(C(=O)C(Nc3ccc(C#N)cc3)=C(C)C1=O)[C@@H]2COC(N)=O (stereo not given in full)	–	3.2	0.8	233	150	4	0.72
COC12[C@@H]3N[C@@H]3CN1C1=C(C(=O)C(Nc3cccc(Cl)c3)=C(C)C1=O)[C@@H]2COC(N)=O (stereo not given in full)	–	12.8	6.4	156	139	2	2.01
COC12[C@@H]3N[C@@H]3CN1c1c(O)c(C)c(N=C3C=CC(=S)C=C3)c(O)c1[C@@H]2COC(N)=O (stereo not given in full)	–	25.6	1.6	250	131	16	1.69
COC12[C@@H]3N[C@@H]3CN1c1c(O)c(C)c(/N=C3\C=CC(=O)C=C3C)c(O)c1[C@@H]2COC(N)=O (stereo not given in full)	-34	25.6	0.4	200	244	64	–
COC12[C@@H]3N[C@@H]3CN1C1=C(C(=O)C(Nc3cccc(NC(C)=O)c3)=C(C)C1=O)[C@@H]2COC(N)=O (stereo not given in full)	–	25.6	0.2	211	231	128	0.33
COC12[C@@H]3N[C@@H]3CN1C1=C(C(=O)C(Nc3ccc4c(c3)OCO4)=C(C)C1=O)[C@@H]2COC(N)=O (stereo not given in full)	–	3.2	< 0.2	211	167	>16	–
COc1cc(/N=C2/C(=O)C3=C(C(O)=C2C)N2C[C@H]4N[C@H]4C2(OC)[C@H]3COC(N)=O)c2ncccc2c1 (stereo not given in full)	–	6.4	0.4	178	178	16	–
COC12[C@@H]3N[C@@H]3CN1C1=C(C(=O)C(Nc3ccc4[nH]ncc4c3)=C(C)C1=O)[C@@H]2COC(N)=O (stereo not given in full)	–	25.6	0.2	250	206	128	–
[H][C@@]12CN3c4c(O)c(C)c(/N=C5C=C/C(=N/C(N)=O)C=C\5)c(O)c4[C@H](COC(N)=O)C3(OC)[C@]1([H])N2 (stereo not given in full)	–	25.6	1.6	278	194	16	0
COC12[C@@H]3N[C@@H]3CN1C1=C(C(=O)C(Nc3cccc(O)c3)=C(C)C1=O)[C@@H]2COC(N)=O (stereo not given in full)	–	12.8	< 0.2	211	356	>64	0.63
COC12[C@@H]3N[C@@H]3CN1C1=C(C(=O)C(Nc3ccc([N+](=O)[O-])cc3)=C(C)C1=O)[C@@H]2COC(N)=O (stereo not given in full)	–	3.2	< 0.2	233	172	>16	1.02
COc1ccccc1/N=C1/C(=O)C2=C(C(O)=C1C)N1C[C@H]3N[C@H]3C1(OC)[C@H]2COC(N)=O (stereo not given in full)	–	25.6	0.4	206	200	128	–
COC12[C@@H]3N[C@@H]3CN1C1=C(C(=O)C(Nc3nc4ccc([N+](=O)[O-])cc4s3)=C(C)C1=O)[C@@H]2COC(N)=O (stereo not given in full)	–	25.6	25.6	156	128	1	–
COC12[C@@H]3N[C@@H]3CN1C1=C(C(=O)C(Nc3ccc(I)cc3)=C(C)C1=O)[C@@H]2COC(N)=O (stereo not given in full)	–	25.6	25.6	200	128	1	2.42
COC12[C@@H]3N[C@@H]3CN1C1=C(C(=O)C(Nc3cccc4nsnc34)=C(C)C1=O)[C@@H]2COC(N)=O (stereo not given in full)	–	12.8	0.8	250	161	32	–
COC12[C@@H]3N[C@@H]3CN1C1=C(C(=O)C(Nc3cccc(C)c3)=C(C)C1=O)[C@@H]2COC(N)=O (stereo not given in full)	–	12.8	0.4	319	181	32	1.83
COc1cccc(NC2=C(C)C(=O)C3=C(C2=O)[C@H](COC(N)=O)C2(OC)[C@@H]4N[C@@H]4CN32)c1 (stereo not given in full)	–	12.8	0.2	319	181	64	1.28
COC1=C/C(=N/c2c(C)c(O)c3c(c2O)[C@H](COC(N)=O)C2(OC)[C@@H]4N[C@@H]4CN32)C=CC1=N (stereo not given in full)	–	25.6	1.6	311	239	16	–
COC12[C@@H]3N[C@@H]3CN1C1=C(C(=O)C(Nc3ccc(S(N)(=O)=O)cc3)=C(C)C1=O)[C@@H]2COC(N)=O (stereo not given in full)	–	25.6	0.2	213	225	128	-0.52
COc1ccc(NC2=C(C)C(=O)C3=C(C2=O)[C@H](COC(N)=O)C2(OC)[C@@H]4N[C@@H]4CN32)cc1N (stereo not given in full)	–	6.4	0.2	311	228	32	–
